This is an account of results in patent publication US12202849B2, “Crystalline forms of tenofovir alafenamide” (Gilead Sciences, Inc., priority 2017, dated 2025).

Broadly, the Solubility is how much of the substance goes into solution per volume. A low value points to a poorly soluble substance.

For the data set the following is noted: deionized water, approximately 22° C., room temperature.

Experimental: In a vial that contains pre-weighed amount of solid, deionized water was added in small increments at approximately 22° C. The solid/liquid mixture was agitated by a vortex mixer and held at room temperature. Continued to add deionized water and repeated the mixing until the solid was fully dissolved.

Consider “tenofovir alafenamide hemifumarate [TAF Hemifumarate]”, for which the Solubility was 20 mg/mL.
